Columns and labels:
Assay type in all cases: cell-based, mouse
Nanog = assay: Immunofluorescence staining, Nanog in ES cells; settings: for Nanog expression level: ES cells, 72 hours, control group = 100%
Description: (§1) Nanog and SSEA1 are also marker proteins of stem cells, and their expression levels could be measured by immunofluorescence staining to further confirm whether BP can effectively maintain the self-renewal and pluripotency of stem cells.
(§2) An experimental group medium (BP5, BP10, BP20 or BP40), a LIF-containing medium (without BP), and a control group medium (without BP) were used respectively in a 6-well culture dish which comprises a slide in each well to culture ES cells with an initial density of 1×10^4 per well for 72 hours. The medium was removed and the cells were washed with PBS. Next, PBS was removed, and then 4% paraformaldehyde was added to perform the fixation at room temperature for 10 minutes. Next, paraformaldehyde was removed, and then slides were washed with 0.1% Tween-20/1X PBS three times for 10 minutes each time. The 0.3% Tween-20/1X PBS was added and held at room temperature for 30 minutes to penetrate the cell membrane to benefit the dye entry. After the slides were washed three times with 0.1% Tween-20, 5% FBS/1×PBS was added to perform a blocking reaction at room temperature for 2 hours, and then reacting with the primary antibody [anti-Nanog (Novus) or anti-SSEA1 (Millipore)] at a dilution of 1:100 at room temperature overnight. Slides were then washed 5 times with 0.1% Tween-20, then reacting with the secondary antibody [FITC-conjugated anti-mouse IgG or TRITC-conjugated anti-rabbit IgG (Sigma-Aldrich)] at a dilution of 1:500. After washed with 0.1% Tween-20 for 10 minutes, slides were mounted with the DAPI-containing UltraCruz™ Mounting medium and observed using an inverted fluorescent microscope.

IL11 = assay: Real-time PCR, cytokine gene IL11 in ES cells; settings: for IL11 mRNA expression level: ES cells, control group = 100%
Protocol: (§3) An experimental group medium (BP5, BP10, BP20 or BP40) and a control group medium (without BP) were added respectively to perform the following steps. ES cells were cultured with an initial density of 1×10^4 per well in a 6-well culture dish. The medium was removed until the cells growth to be about 70 to 80% confluence, and then 1 ml TRIzol (Invitrogen) was added into each well. The cells were incubated for 5 minutes, and then was scraped by a spatula and placed into a 1.5 ml microtube to be lysed adequately. Chloroform (0.2 ml) was added into the microtubes. The mixture was shaken up and down for 15 seconds, and then incubated at room temperature for 2 to 3 minutes. Thereafter, the mixture was centrifuged at 12000 rpm at 4° C. for 15 minutes, and the supernatant was removed into another 1.5 ml microtube and isopropanol (0.5 ml) was added into the microtube with well mixing. The mixture was incubated at room temperature for 10 minutes and then centrifuged at 12000 rpm at 4° C. for 10 minutes. The supernatant was then removed. One ml of 70% ethanol containing DEPC.H2O was used to wash the remaining sediment. The sediment was centrifuged at 7500 rpm at 4° C. for 5 minutes. The supernatant was removed. The sediment was dried by vacuum suction. The dried samples were dissolved in about 0.01 to 0.02 ml of DEPC.H2O to obtain the experimental group RNA and control group RNA. Both groups were stored at −80° C.
(§4) The OD value of RNA samples in both groups obtained from the above Experiment I were measured at a wavelength of 260 nm (RNA: OD260=1 for a 40 μg/mL solution). Each RNA sample (2 μl) was added with RNA-free water until the volume of the sample reached 10 μl. Two μl oligo (dT) (100 μg/ml) was added into each sample, and the samples were incubated at 65° C. for 5 minutes. Then, the samples were immediately placed on ice and spun down. Next, 6.5 μl of a reaction solution [4 μl of 5× buffer+1 μl of 0.1 M DTT+1 μl of RNase out+0.5 μl of SSIII (Invitrogen)] was added into each of the samples, and the samples were incubated at 50° C. for about 30 to 60 minutes and at 75° C. for 15 minutes to obtain the experimental group cDNA and control group cDNA. Both groups were stored at −80° C.
(§5) This experiment was used to detect the expression levels of ES cell-related genes, i.e., Oct4 and Sox2, etc. First, 4 μl of the experimental group cDNA or control group cDNA was added into each well of a 96-well micro-reaction plate, and mixed with 6 μl of a reaction solution [0.5 μl of 6 μM forward primer+0.5 μl of 6 μM reverse primer+5 μl of SYBR Green PCR Master mix (Roche)], wherein the SYBR Green PCR Master mix included the reagents needed for Q-PCR, such as dNTPs, MgCl, Taq DNA polymerase and 2×SYBR® Green I solution. […] The cycle threshold (CT) values were measured. […]

LIF = assay: Real-time PCR, cytokine gene LIF in ES cells; settings: for LIF mRNA expression level: ES cells, control group = 100%
Protocol: as §3, §4, §5

EPO = assay: Real-time PCR, cytokine gene EPO in ES cells; settings: for EPO mRNA expression level: ES cells, control group = 100%
Protocol: as §3, §4, §5

SSEA1 = assay: Immunofluorescence staining, SSEA1 in ES cells; settings: for SSEA1 expression level: ES cells, 72 hours, control group = 100%
Description: as §1, §2

[1] = BP10 medium (about 10 μg BP/ml)
[2] = BP20 medium (about 20 μg BP/ml)
[3] = BP40 medium (about 40 μg BP/ml)
[4] = BP-containing ES cell medium vs control group (without BP), result in words
[5] = BP-containing ES cell medium, result in words
[6] = LIF-containing medium (LIF 4 ng/ml, without BP)
[7] = LIF-containing medium (LIF 4 ng/ml)

Molecule: CCCC=C1OC(=O)c2ccccc21 [BP, n-butylidenephthalide]
- Nanog expression level (Nanog; BP5 medium (about 5 μg BP/ml)): 113.22%
- Nanog expression level (Nanog; [1]): 183.28%
- Nanog expression level (Nanog; [2]): 213.8%
- Nanog expression level (Nanog; [3]): 212.83%
- expression level of Nanog (Nanog; [4]): higher
- IL11 mRNA expression level (IL11; BP5 medium (about 5 μg BP/ml)): 93%
- IL11 mRNA expression level (IL11; [1]): 191%
- mRNA expression level of IL-11 (IL11; [5]): significantly up-regulated
- LIF mRNA expression level (LIF; BP5 medium (about 5 μg BP/ml)): 113%
- LIF mRNA expression level (LIF; [1]): 184%
- mRNA expression level of LIF (LIF; [5]): significantly up-regulated
- EPO mRNA expression level (EPO; BP5 medium (about 5 μg BP/ml)): 97%
- EPO mRNA expression level (EPO; [1]): 196%
- mRNA expression level of EPO (EPO; [5]): significantly up-regulated
- SSEA1 expression level (SSEA1; BP5 medium (about 5 μg BP/ml)): 76.27%
- SSEA1 expression level (SSEA1; [1]): 202.82%
- SSEA1 expression level (SSEA1; [2]): 172.12%
- SSEA1 expression level (SSEA1; [3]): 145.71%
- expression level of SSEA1 (SSEA1; [4]): higher

Molecule: LIF: multifunctional cell factor used to maintain pluripotency of stem cells; LIF-containing medium (4 ng/ml, without BP) as comparison
- Nanog expression level (Nanog; [6]): 204.46%
- IL11 mRNA expression level (IL11; [7]): 99%
- LIF mRNA expression level (LIF; [7]): 81%
- EPO mRNA expression level (EPO; [7]): 91%
- SSEA1 expression level (SSEA1; [6]): 242.01%

From patent US20150056702A1, “METHOD AND KIT FOR CULTURING STEM CELLS” (China Medical University, priority 2013, published 2015)
